# Reference: patent US9561249B2, “Pharmaceutical formulations of nitrite and uses thereof” (TheraVasc Inc., priority 2013, dated 2017)
# Read-outs that look alike come from different tables or passages of the source.
# System: subjects with PAD
# Details: for Blood Pressure diastolic, Supine (Mean) / Blood Pressure systolic, Supine (Mean) / Pulse, Supine (Mean) / Blood Pressure diastolic, Standing (Mean) / Blood Pressure systolic, Standing (Mean) / Diastolic BP, Orthostatic Changes / Pulse, Orthostatic Changes / Pulse, Standing (Mean) / Systolic BP, Orthostatic Changes: 80-mg group
# Protocol: Supine vital signs were measured at the Screening Visit. The subject rested in a supine position for a minimum of 3 minutes prior to obtaining vital sign measurements. Vital signs included BP and pulse rate. Postural vital signs, including both supine and standing measurements of blood pressure and pulse rate, were recorded at all study visits following the first dose of IP administration. Measurements were performed as follows: (1) the subject rested in a supine position for a minimum of 3 minutes, (2) vital signs (BP and pulse rate) were measured while the subject was supine, (3) the subject assumed a standing position for a minimum of 5 minutes, and (4) vital signs (BP and pulse rate) were measured while the subject was standing.
# [1] = Visit 8 (6 days after dose doubling)
smiles,measurement,setting,value
O=NO [sodium nitrite],"Blood Pressure diastolic, Supine (Mean)",Screening (baseline),69.4
same,"Blood Pressure systolic, Supine (Mean)",Screening (baseline),132.4
same,"Pulse, Supine (Mean)",Screening (baseline),63.9
same,"Blood Pressure diastolic, Standing (Mean)",Visit 1 (Day 0),70.2
same,"Blood Pressure diastolic, Supine (Mean)",Visit 1 (Day 0),68.4
same,"Blood Pressure systolic, Standing (Mean)",Visit 1 (Day 0),125.4
same,"Blood Pressure systolic, Supine (Mean)",Visit 1 (Day 0),129.8
same,"Diastolic BP, Orthostatic Changes",Visit 1 (Day 0),1.8
same,"Pulse, Orthostatic Changes",Visit 1 (Day 0),6.9
same,"Pulse, Standing (Mean)",Visit 1 (Day 0),72.6
same,"Pulse, Supine (Mean)",Visit 1 (Day 0),65.6
same,"Systolic BP, Orthostatic Changes",Visit 1 (Day 0),−4.4
same,"Blood Pressure diastolic, Standing (Mean)",Visit 2 (Day 1),71.9
same,"Blood Pressure diastolic, Supine (Mean)",Visit 2 (Day 1),66.7
same,"Blood Pressure systolic, Standing (Mean)",Visit 2 (Day 1),123.1
same,"Blood Pressure systolic, Supine (Mean)",Visit 2 (Day 1),122.8
same,"Diastolic BP, Orthostatic Changes",Visit 2 (Day 1),5.2
same,"Pulse, Orthostatic Changes",Visit 2 (Day 1),7.3
same,"Pulse, Standing (Mean)",Visit 2 (Day 1),72.3
same,"Pulse, Supine (Mean)",Visit 2 (Day 1),65.1
same,"Systolic BP, Orthostatic Changes",Visit 2 (Day 1),0.3
same,"Blood Pressure diastolic, Standing (Mean)",Visit 3 (Day 4),69.2
same,"Blood Pressure diastolic, Supine (Mean)",Visit 3 (Day 4),66.7
same,"Blood Pressure systolic, Standing (Mean)",Visit 3 (Day 4),124.8
same,"Blood Pressure systolic, Supine (Mean)",Visit 3 (Day 4),127.1
same,"Diastolic BP, Orthostatic Changes",Visit 3 (Day 4),2.5
same,"Pulse, Orthostatic Changes",Visit 3 (Day 4),6.2
same,"Pulse, Standing (Mean)",Visit 3 (Day 4),72.9
same,"Pulse, Supine (Mean)",Visit 3 (Day 4),66.7
same,"Systolic BP, Orthostatic Changes",Visit 3 (Day 4),−2.3
same,"Blood Pressure diastolic, Standing (Mean)",Visit 4 (Day 14),68.8
same,"Blood Pressure diastolic, Supine (Mean)",Visit 4 (Day 14),65.2
same,"Blood Pressure systolic, Standing (Mean)",Visit 4 (Day 14),123.7
same,"Blood Pressure systolic, Supine (Mean)",Visit 4 (Day 14),125.1
same,"Diastolic BP, Orthostatic Changes",Visit 4 (Day 14),3.5
same,"Pulse, Orthostatic Changes",Visit 4 (Day 14),7.9
same,"Pulse, Standing (Mean)",Visit 4 (Day 14),72.6
same,"Pulse, Supine (Mean)",Visit 4 (Day 14),64.6
same,"Systolic BP, Orthostatic Changes",Visit 4 (Day 14),−1.4
same,"Blood Pressure diastolic, Standing (Mean)",Visit 5 (Day 28),71.9
same,"Blood Pressure diastolic, Supine (Mean)",Visit 5 (Day 28),68.9
same,"Blood Pressure systolic, Standing (Mean)",Visit 5 (Day 28),119.5
same,"Blood Pressure systolic, Supine (Mean)",Visit 5 (Day 28),124.6
same,"Diastolic BP, Orthostatic Changes",Visit 5 (Day 28),3.0
same,"Pulse, Orthostatic Changes",Visit 5 (Day 28),3.8
same,"Pulse, Standing (Mean)",Visit 5 (Day 28),72.5
same,"Pulse, Supine (Mean)",Visit 5 (Day 28),68.7
same,"Systolic BP, Orthostatic Changes",Visit 5 (Day 28),−5.2
same,"Blood Pressure diastolic, Standing (Mean)",Visit 6 (Day 70),70.0
same,"Blood Pressure diastolic, Supine (Mean)",Visit 6 (Day 70),66.2
same,"Blood Pressure systolic, Standing (Mean)",Visit 6 (Day 70),124.8
same,"Blood Pressure systolic, Supine (Mean)",Visit 6 (Day 70),123.1
same,"Diastolic BP, Orthostatic Changes",Visit 6 (Day 70),3.8
same,"Pulse, Orthostatic Changes",Visit 6 (Day 70),2.1
same,"Pulse, Standing (Mean)",Visit 6 (Day 70),67.6
same,"Pulse, Supine (Mean)",Visit 6 (Day 70),65.5
same,"Systolic BP, Orthostatic Changes",Visit 6 (Day 70),1.6
same,"Blood Pressure diastolic, Standing (Mean)","Visit 7 (Day 71, dose doubled)",67.1
same,"Blood Pressure diastolic, Supine (Mean)","Visit 7 (Day 71, dose doubled)",64.4
same,"Blood Pressure systolic, Standing (Mean)","Visit 7 (Day 71, dose doubled)",123.3
same,"Blood Pressure systolic, Supine (Mean)","Visit 7 (Day 71, dose doubled)",118.4
same,"Diastolic BP, Orthostatic Changes","Visit 7 (Day 71, dose doubled)",2.7
same,"Pulse, Orthostatic Changes","Visit 7 (Day 71, dose doubled)",6.1
same,"Pulse, Standing (Mean)","Visit 7 (Day 71, dose doubled)",70.4
same,"Pulse, Supine (Mean)","Visit 7 (Day 71, dose doubled)",64.3
same,"Systolic BP, Orthostatic Changes","Visit 7 (Day 71, dose doubled)",4.8
same,"Blood Pressure diastolic, Standing (Mean)",[1],67.9
same,"Blood Pressure diastolic, Supine (Mean)",[1],66.9
same,"Blood Pressure systolic, Standing (Mean)",[1],117.7
same,"Blood Pressure systolic, Supine (Mean)",[1],120.7
same,"Diastolic BP, Orthostatic Changes",[1],1.0
same,"Pulse, Orthostatic Changes",[1],4.3
same,"Pulse, Standing (Mean)",[1],72.6
same,"Pulse, Supine (Mean)",[1],68.3
same,"Systolic BP, Orthostatic Changes",[1],−3.0
same,Hypotensive effects,"treated groups, 40 and 80 mg BID",Dose dependent hypotensive affects were observed
